Test results reported in patent US10130608B2, “Methods of treating or preventing multiple sclerosis” (Toray Industries, Inc., priority 2014, dated 2018).

Key:
[1] = system: MOG-induced mouse experimental autoimmune encephalomyelitis model; experiment: MOG-induced mouse experimental autoimmune encephalomyelitis model, 30 mg/kg; format: in vivo; conditions: C57BL/6J mouse, MOG 35-55; 30 mg/kg orally twice daily for 16 days from three days before inoculation; scored 13 days after inoculation
Experimental: The action of the cyclohexane derivative (I) or the pharmaceutically acceptable salt thereof against an increase in the neurological symptom score in a MOG-induced mouse experimental autoimmune encephalomyelitis model was evaluated. The mouse experimental autoimmune encephalomyelitis model was prepared according to the method described in Journal of Neuroscience Research, 2006, Vol. 84, pp. 1225-1234 with partial modification. A MOG 35-55 administration solution, which was prepared by mixing equal volumes of a PBS solution containing a partially synthesized peptide of MOG (MOG 35-55; CS Bio Company Inc.) whose concentration was adjusted to 4 mg/mL and Freund's complete adjuvant, was intracutaneously inoculated to both lateral regions of each C57BL/6J mouse (male, 7-weeks old) (Charles River Laboratories Japan) in a total amount of 0.1 mL (0.05 mL per side). Further, on the day of inoculation of the MOG 35-55 administration solution, and two days thereafter, 200 μL of pertussis toxin (Sigma) whose concentration was adjusted to 1 μg/mL was intraperitoneally administered to each mouse. From three days before inoculation of the MOG 35-55 administration solution, Compound 3 was orally administered to mice twice daily at a dose of 30 mg/kg for 16 successive days. Compound 3 was used as a suspension in 0.5% methylcellulose solution. The group in which Compound 3 was administered to mice was provided as the Compound 3 administration group. To provide a vehicle administration group, 0.5% methylcellulose solution was administered in the same manner. Thirteen days after inoculation of the MOG 35-55 administration solution, the neurological symptom score was scored (0: normal, 1: limp tail or hind limb weakness, 2: limp tail and hind limb weakness, 3: partial hind limb paralysis, 4: complete hind limb paralysis, 5: moribund state). […] Comparative Control Compound 1 and Comparative Control Compound 2 were similarly evaluated. […] Thirteen days after inoculation of the MOG 35-55 administration solution, the neurological symptom score was scored.

thrombin = target: T1, thrombin (Homo sapiens, UniProt P00734); experiment: Thrombin activity assay (SensoLyte 520 kit, FRET); format: biochemical; conditions: at the maximum concentration, 30 μmol/L; read-out: thrombin activity inhibition rate
T1 construct: purchased Anaspec Inc
Experimental: The action of the cyclohexane derivative (I) or the pharmaceutically acceptable salt thereof on the thrombin activity was evaluated using a SensoLyte (registered trademark) 520 thrombin activity assay kit manufactured by Anaspec Inc., which utilizes fluorescence resonance energy transfer (FRET).
The test compound was dissolved in dimethylsulfoxide (hereinafter referred to as DMSO), and diluted with the assay buffer included in the kit to a final DMSO concentration of 0.5 to 1%. […] Thereafter, the fluorescence value was measured by excitation at 485 nm and detection at 520 nm.
The thrombin activity inhibition rate (%) was calculated according to Equation 1, and regression analysis was carried out to obtain a sigmoid curve (variable slope), thereby calculating the IC50 value of the thrombin activity inhibition by the test compound: Thrombin activity inhibition rate (%)=(1−((fluorescence value in the presence of both thrombin and the test compound)−(fluorescence value in the absence of both thrombin and the test compound))/((fluorescence value in the presence of thrombin and absence of the test compound)−(fluorescence value in the absence of both thrombin and the test compound)))×100 Equation 1.

[2] = system: PLP-induced mouse experimental autoimmune encephalomyelitis model; experiment: PLP-induced mouse experimental autoimmune encephalomyelitis model; format: in vivo; conditions: SJL mouse, PLP 139-151; 10 mg/kg orally twice daily for 7 days from two days after inoculation; scored 9 days after inoculation
Experimental: Action of the cyclohexane derivative (I) or the pharmaceutically acceptable salt thereof against an increase in the neurological symptom score in a PLP-induced mouse experimental autoimmune encephalomyelitis model was evaluated. The mouse experimental autoimmune encephalomyelitis model was prepared according to the method described in International Immunology, 1997, Vol. 9, pp. 1243-1251 with partial modification. A PLP 139-151 administration solution, which was prepared by mixing equal volumes of a PBS solution containing a partially synthesized peptide of PLP (PLP 139-151; Kokusan Chemical Co., Ltd.) whose concentration was adjusted to 2 mg/mL and Freund's complete adjuvant, was intracutaneously inoculated to both lateral regions of each SJL mouse (female, 6-weeks old) (Charles River Laboratories Japan) in a total amount of 0.1 mL (0.05 mL per side). Further, on the day of inoculation of the PLP 139-151 administration solution, and two days thereafter, 200 μL of pertussis toxin (Sigma) whose concentration was adjusted to 1 μg/mL was intraperitoneally administered to each mouse. […] Nine days after inoculation of the PLP 139-151 administration solution, the neurological symptom score was scored (0: normal, 1: limp tail or hind limb weakness, 2: limp tail and hind limb weakness, 3: partial hind limb paralysis, 4: complete hind limb paralysis, 5: moribund state). […]

[3] = system: MOG-induced mouse experimental autoimmune encephalomyelitis model; experiment: MOG-induced mouse experimental autoimmune encephalomyelitis model, 3 mg/kg and 10 mg/kg; format: in vivo; conditions: C57BL/6J mouse, MOG 35-55, scored 14 days after inoculation
Experimental: Action of the cyclohexane derivative (I) or the pharmaceutically acceptable salt thereof against an increase in the neurological symptom score in a MOG-induced mouse experimental autoimmune encephalomyelitis model was evaluated. A MOG 35-55 administration solution, which was prepared by mixing equal volumes of a PBS solution containing a partially synthesized peptide of MOG (MOG 35-55; CS Bio Company Inc.) whose concentration was adjusted to 4 mg/mL and Freund's complete adjuvant, was intracutaneously inoculated to both lateral regions of each C57BL/6J mouse (male, 10-weeks old) (Charles River Laboratories Japan) in a total amount of 0.1 mL (0.05 mL per side). Further, on the day of inoculation of the MOG 35-55 administration solution, and two days thereafter, 200 μL of pertussis toxin (Sigma) whose concentration was adjusted to 1 μg/mL was intraperitoneally administered to each mouse. As a test compound, Compound 3 was used. […] Fourteen days after inoculation of the MOG 35-55 administration solution, the neurological symptom score was scored (0: normal, 1: limp tail or hind limb weakness, 2: limp tail and hind limb weakness, 3: partial hind limb paralysis, 4: complete hind limb paralysis, 5: moribund state). […]

| inhibition at 30 µM (thrombin) [%] | SMILES | rate of suppression of exacerbation of neurological symptoms [1] [%] | rate of suppression of exacerbation of neurological symptoms [2] [%] | rate of suppression of exacerbation of neurological symptoms ([3]; 3 mg/kg orally twice daily for 12 days from two days after inoculation) [%] | rate of suppression of exacerbation of neurological symptoms ([3]; 10 mg/kg orally twice daily for 12 days from two days after inoculation) [%] |
| --- | --- | --- | --- | --- | --- |
| – | COc1ccc(-n2nc(C3(O)CCNCC3)cc2-c2ccc(C)cc2)cc1 [Comparative Control Compound 1] | 3.3 | – | – | – |
| – | COc1ccc(-n2nc(C3(O)CCC(O)CC3)cc2-c2ccccc2C)cc1 (stereo not shown) [Comparative Control Compound 2] | 6.5 | – | – | – |
| 17.2 | COc1ccc(-n2nc(C3(O)CCC(O)CC3)cc2-c2ccc(C)cc2)cc1 (stereo not drawn) [Compound 3, 1-(1-(4-methoxyphenyl)-5-(p-tolyl)-1H-pyrazol-3-yl)cyclohexane-cis-1,4-diol] | 85.7 | 66.4 | 53.8 | 61.5 |
